Test results taken from article PMC6826492, “Experimental and Computational Study of the Antioxidative Potential of Novel Nitro and Amino Substituted Benzimidazole/Benzothiazole-2-Carboxamides with Antiproliferative Activity” (Antioxidants, 2019).
Where two headings read alike, the source gives them in different places.

Tests used:
three human cancer cells = test: Antiproliferative activity in vitro, range over the tumor cell lines; type: cell-based; details: HCT116, MCF-7, H 460
Procedure: (§1) The experiments were performed on four human cell lines, including HCT 116 (colon carcinoma), H 460 (lung carcinoma), MCF-7 (breast carcinoma), and HEK 293 (human embryonic kidney cells), in line with previously published experimental procedures. Briefly, the cells were grown in DMEM medium with the addition of 10% fetal bovine serum (FBS), 2 mM L-glutamine, 100 U/mL penicillin, and 100 µg/mL streptomycin, and cultured as monolayers at 37 °C in a humidified atmosphere with 5% CO2. Cells were seeded at 2 × 10^3 cells/well in a standard 96-well microtiter plates and left to attach for 24 h. The next day, a test compound was added in five serial 10-fold dilutions. The rate of cell growth was evaluated after 72 h of incubation with MTT assays. The obtained results are expressed as IC50 values, calculated from the concentration-response curve using linear regression analysis by fitting the test concentrations that give PG values above and below the reference value (i.e., 50%). Each test was performed in quadruplicate in at least two individual experiments.

[1] = Ferric reducing/antioxidant power (FRAP assay); type: biochemical; details: means ± standard deviation; absorbance at 593 nm
Procedure: The FRAP method was carried out according to previously described procedures with some modifications to be compatible with an assay on a 96-well microplate. All tests were done in triplicate, while the obtained results were averaged and reported as Fe^2+ equivalents (Fe^2+ µmol).
By using the FRAP assay, we investigated the reducing power of investigated systems, which was monitored by the corresponding changes in the absorbance at 593 nm. This method is based on the ability of systems to reduce the ferric tripyridyl triazine complex (TPTZ) to the ferrous state (Fe^2+), which can be seen by an intense blue color. […] Good reducing ability was shown by the trimethoxy substituted benzimidazole-2-carboxamide 14 bearing the amino group (1102.5 ± 14.1 mmolFe^2+/mmolC).

[2] = tested on: HEK 293 (human embryonic kidney cells); test: Cytotoxic activity on non-cancerous cells (MTT assay); type: cell-based; details: for IC50: Homo sapiens, HEK293, non-tumor cell line, 72 h incubation, MTT, concentration that causes 50% growth inhibition
Procedure: as §1

[3] = DPPH free radical scavenging; type: biochemical; design: key to DPPH IC50: –: Very low activity; details: after 30 min of incubation with 100 μM DPPH
Procedure: The reducing activity of investigated systems was achieved by the DPPH method according to previously described procedures with modifications to assure the use in a 96-well microplate. Briefly, equal volumes of various concentrations of tested molecules (dissolved in DMSO) were added to the solution of DPPH (final concentration 50 µM in absolute ethanol). Ethanol and DMSO were used as control solutions in line with earlier reports.

MCF-7 (breast carcinoma) = test: Antiproliferative activity in vitro (MTT assay); type: cell-based, human; details: 72 h incubation, concentration that causes 50% growth inhibition
Procedure: as §1

[4] = tested on: HCT 116 (colon carcinoma); test: Antiproliferative activity in vitro (MTT assay); type: cell-based, human; details: 72 h incubation, concentration that causes 50% growth inhibition, read-out: IC50 HCT116
Procedure: as §1

H 460 (lung carcinoma) = test: Antiproliferative activity in vitro (MTT assay); type: cell-based, human; details: 72 h incubation, concentration that causes 50% growth inhibition
Procedure: as §1

HCT 116 cells = test: Antioxidative activity assay in cells (TBHP-induced ROS, DCFH-DA); type: cell-based, human; details: 100 µM TBHP + 10 µM compound, 1 h, DCFH-DA fluorescence
Procedure: For the antioxidative activity assay, 2.5 × 10^4 cells were seeded into 96-well microtiter plates and left to attach for 24 h. The next day, cells were washed with PBS and incubated in FBS-free DMEM medium with 25 µM DCFH-DA fluorescence dye. After 45 min of incubation, medium was discarded, and cells were washed with PBS. After the washing step, cells were incubated with 100 µM tert-Butyl hydroperoxide (TBHP) alone or in combination with antioxidative agents (50 mM N-Acetyl-L-cysteine—NAC, or 10 µM tested compounds) in PBS, for 1 h at 37 °C. DCFH-DA fluorescence was recorded on a microplate fluorimeter reader (Tecan) with excitation beam of 485 nm, while the emitted fluorescence was collected at 535 nm. All tests were presented as medians of three independent measurements, done in triplicates. One-way ANOVA with Tukey’s post-hoc test was used for statistical analysis, * p < 0.05, ** p < 0.01, *** p < 0.001.
In order to test the antioxidant activity of selected systems in tumor cells (Figure 1), we treated HCT 116 cells with tert-Butyl hydroperoxide (TBHP), a substance commonly used for inducing oxidative stress in cells and tissues, alone or in a combination with a known antioxidative agent N-Acetyl-L-cysteine (NAC) or tested compounds [35]. We measured the formation of oxidative stress by-products using 2′,7′-dichlorodihydrofluorescein diacetate (DCFH-DA). We selected system 8 showing pronounced antiproliferative/cytotoxic activity, but no antioxidant capacity in DPPH/FRAP assays, 29 showing exceptionally pronounced antioxidative activity in DPPH/FRAP tests, 14 showing negligible antiproliferative but strong antioxidant capacity in both DPPH/FRAP assays, and 26 showing similarly strong antiproliferative and radical trapping activity in DPPH assay, but rather modest reducing power in FRAP assay. None of the compounds influenced the basal level of ROS in the cells. […] On the other hand, no effect was obtained upon treatment with either 8 or 14 (Figure 1). We additionally tested the impact of the selected compounds on cellular and mitochondrial ROS production in HCT 116 cells using fluorescent dyes, DCFH-DA for cellular and MitoSOX for mitochondrial ROS detection (Supplementary Materials, Figures S53 and S54).
Figure 1 Antioxidative activity of selected systems. HCT 116 cells were treated with the combination of tert-Butyl hydroperoxide (TBHP, 100 uM) and N-Acetyl-L-cysteine (NAC, 50 mM) or tested compounds 8, 14, 26, and 29 (10 µM) for 1 h. The level of reactive oxygen species (ROS) was measured with fluorescent dye 2′,7′-dichlorodihydrofluorescein diacetate (DCFH-DA) using fluorimeter. Treatment with 100 uM TBHP alone was used as a control for ROS induction. Data presented here are the results of three independent measurements, done in triplicates. […]

HCT116 cell line [5] = test: Cellular ROS measurement assay (DCFH-DA, flow cytometry); type: cell-based, human; details: HCT116, 10 µM compounds (2 mM H2O2 positive control), 1 h, DCF-DA; *** p < 0.001, ns not significant
Procedure: Figure S53. Impact of compounds on cellular ROS production was measured with fluorescent dye DCF-DA in HCT116 cell line, after the treatment with 10 µM compounds for 1h. H 2O2 was used as a positive control. Data presented here are the results of 3 independent measurements, done in duplicates. One-way ANOVA with Tukey’s post-hoc test was used for statistical analysis, ***- p < 0.001. […]
Human colon carcinoma cell line HCT116 was grown in DMEM medium with the addition of 10% fetal bovine serum (FBS), 2 mM L-glutamine, 100 U/ml penicillin and 100 µg/ml streptomycin, and cultured as monolayers at 37°C in a humidified atmosphere with 5% CO2.
Cellular ROS measurement assay
For the cellular ROS measurement assay, 2.5 × 10^4 cells were seeded into 96-well microtiter plates 24h prior to experiment. Next day, cells were trypsinized and incubated in FBS-free DMEM medium with 20 µM DCFH-DA fluorescence dye for 45 minutes. After the incubation, compounds were added without washing and cells were treated with 2 mM H 2O2 as a positive control and 10 µM compounds 8, 14 and 26 for 1 hour. Cells were washed in PBS and DCFH-DA signal was measured by flow cytometry, in FL1 channel. […]

HCT116 cell line [6] = test: Mitochondrial ROS measurement assay (MitoSOX, flow cytometry); type: cell-based, human; details: HCT116, 10 µM compounds (3 µM Rotenone positive control), 1 h, *** p < 0.001, ns not significant

| IC50 (three human cancer cells) | IC50 [3] | IC50 (MCF-7 (breast carcinoma)) | IC50 [4] | IC50 (H 460 (lung carcinoma)) | DPPH IC50 [3] | IC50 (MCF-7 (breast carcinoma); Homo sapiens, MCF7, 72 h) | IC50 ([4]; Homo sapiens, HCT-116, 72 h) | IC50 (H 460 (lung carcinoma); Homo sapiens, NCI-H460, 72 h) | SMILES | FRAP [1] | IC50 [2] | ROS levels when oxidative stress was induced (HCT 116 cells) | cellular ROS production (significance vs control) (HCT116 cell line [5]) | lower activity towards HEK293 cells than towards HCT116 cells (times) ([2]; HEK293 vs HCT116) | mitochondrial ROS production (significance vs control) (HCT116 cell line [6]) |
| --- | --- | --- | --- | --- | --- | --- | --- | --- | --- | --- | --- | --- | --- | --- | --- |
| 3 to 10 µM | 12 ± 1.1 µM | 3 ± 0.7 µM | 10 ± 8 µM | 4 ± 0.1 µM |  |  |  |  | COc1ccccc1C(=O)Nc1nc2ccc(N)cc2s1.Cl [Compound 21, N-(6-aminobenzothiazol-2-yl)-2-methoxybenzamide hydrochloride] | 214.3 ± 3.4 mmolFe^2+/mmolC | 25 ± 1.5 µM |  |  |  |  |
| 0.6 to 2 µM |  |  |  |  | – | 1 ± 0.2 µM | 0.6 ± 0.03 µM | 2 ± 0.2 µM | COc1cc(C(=O)Nc2nc3ccc([N+](=O)[O-])cc3[nH]2)cc(OC)c1OC [Compound 8, 3,4,5-trimethoxy-N-[5(6)-nitrobenzimidazol-2-yl]benzamide] | 89.7 ± 6.2 mmolFe^2+/mmolC | 2 ± 0.5 µM | no effect | ns | ≈ 3 times | ns |
